Test results published in patent EP0882015B1, “DIPHENYL STILBENES AS PRODRUGS TO COX-2 INHIBITORS” (Merck Frosst Canada & Co., priority 1996, dated 1997).

Test: Rat plasma levels, per os pharmacokinetics in rats (conversion of prodrug to active COX-2 inhibitor)
Type: in vivo, Male Sprague Dawley rats
Settings: maximum plasma concentration of the corresponding lactone (active COX-2 inhibitor) observed in rats dosed at 20 mg/kg orally with the indicated prodrug
Excerpt: The animals are housed, fed and cared for according to the Guidelines of the Canadian Council on Animal Care.
Male Sprague Dawley rats (325-375 g) are fasted overnight prior to each PO blood level study.
The rats are placed in the restrainer one at a time and the box is firmly secured. The zero blood sample is obtained by nicking a small (1 mm or less) piece off the tip of the tail. The tail is then stroked with a firm but gentle motion from the top to the bottom to milk out the blood. Approximately 1 mL of blood is collected into a heparinized vacutainer tube.
Compounds are prepared as required, in a standard dosing volume of 10mL/kg, and administered orally by passing a 16 gauge, 3" gavaging needle into the stomach.
Subsequent bleeds are taken in the same manner as the zero bleed except that there is no need to nick the tail again. The tail is cleaned with a piece of gauze and milked/stroked as described above into the appropriately labelled tubes.
Immediately after sampling, blood is centrifuged, separated, put into clearly marked vials and stored in a freezer until analysed. […]
For analysis, aliquots are diluted with an equal volume of acetonitrile and centrifuged to remove protein precipitate. […] Quantitation is done relative to a clean blood sample spiked with a known quantity of drug. […]

In the case of `COC(=O)/C(=C(\C)c1ccc(S(C)(=O)=O)cc1)c1ccccc1` [Example 1, (E)-3-(4-Methylsulfonyl)phenyl-2-phenylbut-2-enoic acid methyl ester], the “Plasma Levels” value is reported as 1.0 µM.
